Results reported in patent publication US20170253607A1, “LONG-ACTING HIV PROTEASE INHIBITOR” (Shionogi & Co., Ltd., priority 2014, published 2017).

Biological target: HIV-1 PR (Human immunodeficiency virus type 1 group M subtype B, UniProt P04585)
Assay: HIV-protease inhibitory activity assay (FRET peptide substrate)
Assay type: biochemical
Conditions: Test Example 1
Method in brief: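 Fluorescence recovery at ex 485/em 535 nm reports cleavage of a quenched FRET peptide (2 μmol/L final) by 0.83 ng enzyme over 60 minutes at room temperature. Buffer was NaAc pH 4.8 with NaCl, EDTA, DTT and Tween 20. IC50 values came from four-parameter logistic regression of % inhibition.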

Row | Compound | IC50
1 | COc1ccc(S(=O)(=O)N(CC(C)C)CC(O)C(Cc2ccc(N(C)c3cccc(-c4sc5c(c4C(=O)O)CC(C)(C)CC5)c3)cc2)NC(=O)OC2COC3(C)OCCC23)cc1 (stereo not drawn) [Compound I-479] | 2.49 nM
2 | COc1ccc(S(=O)(=O)N(CC(C)C)CC(O)C(Cc2ccc(N3CCC(Cc4ccccc4-c4sc5c(c4C(=O)O)CC(C)(C)CC5)C3)cc2)NC(=O)OC2COC3(C)OCCC23)cc1 (stereo not drawn) [Compound I-667] | 7.95 nM
3 | COc1ccc(S(=O)(=O)N(CC(C)C)CC(O)C(Cc2ccc(NCc3cncc(-c4sc5c(c4C(=O)O)CC(C)(C)CC5)c3)cc2)NC(=O)OC2COC3(C)OCCC23)cc1 (stereo not drawn) [Compound I-557] | 1.67 nM
4 | COc1ccc(S(=O)(=O)N(CC(C)C)CC(O)C(Cc2ccc(NCc3cc(-c4sc5c(c4C(=O)O)CC(C)(C)CC5)ccc3OC(F)(F)F)cc2)NC(=O)OC2COC3(C)OCCC23)cc1 (stereo not drawn) [Compound I-294] | 3.92 nM
5 | COc1ccc(S(=O)(=O)N(CC(C)C)CC(O)C(Cc2ccc(C3=CCC(c4sc5c(c4C(=O)O)CC(C)(C)CC5)CC3)cc2)NC(=O)OC2COC3(C)OCCC23)cc1 (stereo not drawn) [Compound I-202] | 12.1 nM
6 | COc1ccc(S(=O)(=O)N(CC(C)C)CC(O)C(Cc2ccc(OCC3CCN(c4ccc(C#N)cc4-c4sc5c(c4C(=O)O)CC(C)(C)CC5)CC3)cc2)NC(=O)OC2COC3(C)OCCC23)cc1 (stereo not drawn) [Compound I-325] | 31.7 nM
7 | COc1ccc(S(=O)(=O)N(CC(C)C)CC(O)C(Cc2ccc(OCCNc3ccc(C#N)cc3-c3sc4c(c3C(=O)O)CC(C)(C)CC4)cc2)NC(=O)OC2COC3(C)OCCC23)cc1 (stereo not drawn) [Compound I-258] | 5.23 nM
8 | COc1ccc(S(=O)(=O)N(CC(C)C)CC(O)C(Cc2ccc(NCc3c(F)cccc3C(=O)Nc3sc4c(c3C(=O)O)CC(C)(C)CC4)cc2)NC(=O)OC2COC3(C)OCCC23)cc1 (stereo not drawn) [Compound I-748] | 2.39 nM
9 | COc1ccc(S(=O)(=O)N(CC2CCCC2)CC(O)C(Cc2ccc(OCc3ccccc3Cn3nc4c(c3C(=O)O)CC(C)(C)CC4)cc2)NC(=O)OC2COC3(C)OCCC23)cc1 (stereo not drawn) [Compound I-216] | 1.93 nM
10 | COc1ccc(S(=O)(=O)N(CC(C)C)CC(O)C(Cc2ccc(NCC3=C(c4sc5c(c4C(=O)O)CC(C)(C)CC5)CCC(F)(F)C3)cc2)NC(=O)OC2COC3OCCC23)cc1 (stereo not drawn) [Compound I-880] | 4.7 nM
11 | COc1ccc(S(=O)(=O)N(CC(C)C)CC(O)C(Cc2ccc(NCC3CC(C)(C)CCC3c3sc4c(c3C(=O)O)CC(C)(C)CC4)cc2)NC(=O)OC2COC3OCCC23)cc1 (stereo not drawn) [Compound I-886] | 3.68 nM
12 | COc1ccc(S(=O)(=O)N(CC(C)C)C[C@@H](O)[C@H](Cc2ccc(OCc3ccccc3-c3sc4c(c3C(N)=O)CC(C)(C)CC4)cc2)NC(=O)O[C@H]2CO[C@@]3(C)OCC[C@@H]23)cc1 [Compound I-20] | 1.77 nM
13 | COc1ccc(S(=O)(=O)N(CC(C)C)CC(O)C(Cc2ccc(OCc3ccccc3-c3sc(Oc4ccccc4)nc3C(=O)O)cc2)NC(=O)OC2COC3OCCC23)cc1 (stereo not drawn) [Compound I-843] | 1.33 nM
14 | COc1ccc(S(=O)(=O)N(CC(C)C)CC(O)C(Cc2ccc(NCc3c(C(=O)O)[nH]c4ccc(Cl)cc34)cc2)NC(=O)OC2COC3(C)OCCC23)cc1 (stereo not drawn) [Compound I-319] | 2.09 nM
15 | COc1ccc(S(=O)(=O)N(CC(C)C)CC(O)C(Cc2ccc(OCC3CCCN3c3ccccc3-c3sc4c(c3C(=O)O)CC(C)(C)CC4)cc2)NC(=O)OC2COC3(C)OCCC23)cc1 (stereo not drawn) [Compound I-95] | 2.09 nM
16 | CC(C)CN(CC(O)C(Cc1ccc(OCc2nc(Oc3ccccc3)sc2C(=O)O)cc1)NC(=O)OC1COC2OCCC12)S(=O)(=O)c1ccc2ncsc2c1 (stereo not drawn) [Compound I-842] | 0.69 nM
17 | COc1ccc(S(=O)(=O)N(CC(C)C)CC(O)C(Cc2ccc(OCc3cc(Cc4ccc(F)cc4)cnc3C(=O)O)cc2)NC(=O)OC2COC3(C)OCCC23)cc1 (stereo not drawn) [Compound I-308] | 1.91 nM
18 | COc1ccc(S(=O)(=O)N(CC(C)C)C[C@@H](O)[C@H](Cc2ccc(OCc3ccc(-c4ccc(F)cc4F)cc3-c3noc(=O)[nH]3)cc2)NC(=O)O[C@H]2CO[C@@]3(C)OCC[C@@H]23)cc1 [Compound I-21] | 1.39 nM
